Measurements reported in a melting point compilation (Tetko et al.; mined from patent text by program, amines drawn as free bases though some values may be those of a salt).

| SMILES | melting point |
| --- | --- |
| CSc1nc2sccc2c2nnc(SCc3ccccc3)n12 | 209 to 211 °C |
| c1ccc2c(-c3cnc(CCC4CCCCN4)s3)c[nH]c2c1 (stereo not given) | 155 to 157 °C |
| c1cc(CCCCn2ccnc2)cc(OCc2ccc3oc(-c4cccs4)nc3c2)c1 | 97 to 98 °C |
| CN(c1ccc(O)cc1)S(=O)(=O)c1ccc(C(F)(F)F)cc1 | 145 to 146 °C |
| O=C(Nc1nnc(CC2CC2)o1)C(c1ccccc1)c1ccccc1 | 158 to 159 °C |
| COc1ccc(/C=C/CO)cc1OCc1nc(-c2ccccc2)oc1C | 137 to 138 °C |
| COc1ccc2c3c1C(=O)CC3CCO2 (stereo not given) | 122 to 124 °C |
| CC1(O)CCC2(C)C(CCC3C2CCC2(C)C3CCC2[N+](=O)[O-])C1 (stereo not given) | 211 to 213 °C |
| CCN(C)c1nc2ccccc2n2cnc(-c3nc(C4CC4)no3)c12 | 96 to 97 °C |
| Nn1c(=O)c(-c2cccs2)nc2ccccc21 | 164 °C |
| COC(=O)C(C)(C)OCC#Cc1cc(C(F)(F)F)ccc1NS(=O)(=O)c1ccc2nc(NC(C)=O)sc2c1 | 104 to 106 °C |
| CS(=O)(=O)N1CCC(NC(=O)Nc2cccc(F)c2)CC1 | 212 to 214 °C |
| Cn1ncnc1COc1nc2c(cc1-c1ccccc1)nnn2-c1ccccc1 | 153 to 156 °C |
| O=C(O)c1csc(NC(=O)C(CC2CCCC2)c2ccc(Cl)c(Cl)c2)n1 (stereo not given) | 285 to 287 °C |
| Cc1ccc(CCC(CO)n2cnc(C(N)=O)c2)cc1 (stereo not given) | 138 to 141 °C |
| CC1Cc2cc3c(cc2C(c2ccc([N+](=O)[O-])cc2)=NN1c1nncs1)OCO3 (stereo not given) | 212 to 213 °C |
| CCOc1cc(-n2c(=O)cc(C(F)(F)F)n(C)c2=O)c(F)cc1Cl | 118 to 121 °C |
| CNC(=O)[C@H](Cc1ccc(OCc2ccccc2)cc1)NC(=O)[C@H](CC(C)C)N[C@H](C)C(=O)OC | 65 to 68 °C |
| COc1ccc(CCNc2nc(N)c(N)c(N)n2)cc1 | 134 to 138 °C |
| CC(C)(C)OC(=O)CCOCCc1cccc(-c2nc(=O)c3ccccc3s2)n1 | 67.7 to 68.5 °C |
| CCCc1nc2c(N)nc3cc(-c4cccnc4)ccc3c2n1CCCCNC(=O)OC(C)(C)C | 136 to 138 °C |
| Cc1cc2c(cc1C(F)(F)F)N(C(=O)Nc1ccc(OCc3ccccn3)nc1)CC2 | 219 to 220 °C |
| CC1CCC(C(=O)N(C)C)=C2NC=CC(=O)N21 (stereo not given) | 78 °C |
| CCCCC1(CCCC)NC(c2nc(-c3ccncc3)c[nH]2)Cc2c1[nH]c1ccccc21 (stereo not given) | 200 to 205 °C |
| CCOC(=O)c1c(C(C)(C)C)oc(-c2ccccc2)c1-c1ccc(F)cc1 | 93 to 94 °C |
| O=Cc1c(Cl)nc2ccccc2c1-c1ccc(F)cc1 | 168 to 170 °C |
| CCOP(=O)(Cc1ccccc1NC(=O)C1=Cc2cc(C3CCCCC3)ccc2CC1)OCC | 102 to 103 °C |

| SMILES | melting point |
| --- | --- |
| Cc1ccc(CI)cc1Cl | 88 °C |
| CCOC(=O)CN(CC=CC(=O)Nc1cc2c(Nc3ccc(F)c(Cl)c3)ncnc2cc1OCC1CC1)CCOC(C)=O | 90 to 92 °C |
| COC(=O)c1ccccc1C=Cc1ccc(Br)cc1 | 104 to 106 °C |
| CCN(C)c1nc2sc3c(NCc4ccncc4)ncnc3c2c2c1CCC(C)(C)C2 | 207 °C |
| Nc1cc2c3c(cccc3c1Cl)C(=O)N(O)C2=O | 271 to 275 °C |
| COc1ccc(Oc2ccc3ccc(N)nc3n2)cc1 | 200 °C |
| COc1ccc(-c2cc(-c3ccc(-c4c(Cc5ccccc5)oc5ccccc45)cc3)ccc2OC(Cc2ccccc2)C(=O)O)cc1 (stereo not given) | 73 to 75 °C |
| CCC(CC)Oc1cc(C)nc(Nc2c(C)cc(C)cc2C)c1 | 98 to 100 °C |
| CCOC(=O)c1cnn(-c2ccc(Cl)cc2)c1 | 127 to 128 °C |
| CC1=C(c2ccc(Cl)cc2)n2ncc3c(=O)[nH]c(=S)n(c32)C1 | 283 to 285 °C |
| CC#CCOc1ccc(S(=O)(=O)NCCC(=O)OC(C)(C)C)cc1 | 63 to 65 °C |
| COc1ccc(OC)c(S(=O)(=O)n2c(CCC(=O)O)cc3nc(Cl)ccc32)c1 | 204 to 209 °C |
| Cc1cccc(C(O)CN2CCNC2=S)c1 (stereo not given) | 100 °C |
| CC(NC(=O)C1=C(C(=O)Nc2cc(OC3CCCCC3)c(Cl)cc2F)CCCC1)c1ccccc1 (stereo not given) | 156 to 159 °C |
| Cc1cccc2c1ccc1c3occ(C)c3c(=O)oc21 | 173 to 175 °C |
| Fc1ccc(Oc2nccc(-c3c(-c4ccc(F)cc4)ncn3C3CCNCC3)n2)cc1 | 186 to 187 °C |
| CCOC(=O)c1cc(C)n(-c2cccc(C)c2)c1-c1ccccc1 | 92.5 to 94 °C |
| Clc1ccc2c(c1)Nc1cc(Cl)ccc1OCO2 | 194 to 196 °C |
| CC(=O)NC[C@H]1CN(c2ccc(N3CCC4(CC3)NCCO4)c(F)c2)C(=O)O1 | 138 to 140 °C |
| O=C(c1c[nH]c2cc([N+](=O)[O-])ccc12)C(F)(F)F | 263 to 265 °C |
| Cn1cncc1C(O)(c1ccc(Cl)cc1)c1cc2c3c(c1)c(-c1cccc(Cl)c1)cc(=O)n3CC2 (stereo not given) | 214 °C |
| COc1cccc(OCC(=O)c2cc(OCc3ccccc3)ccc2OC)c1 | 76 to 77 °C |
| CC(=O)OC1CCC(c2ccccc2)CC1 (stereo not given) | 43 to 45 °C |
| CC(=O)Nc1c(Cl)cc(Br)c(C)c1Cl | 173 to 174 °C |
| Cc1cc(C(=O)c2cccc(Cc3ccccc3)c2)c(O)c2ncccc12 | 123 to 124 °C |
| CCCCCCNCCCS(=O)(=O)O | 144 to 147 °C |
| CC(C)CN1C(=O)[C@@H](CC(=O)O)N[C@H](c2ccccc2Cl)c2cc(Cl)ccc21 | 184 to 188 °C |

Results, then the compound that gave them:

| melting point | SMILES |
| --- | --- |
| 117 to 120 °C | CC(C)(C)OC(=O)N(c1ccccc1)S(=O)(=O)c1ccc2c(c1)CCC(C)(C)O2 |
| 158 to 159 °C | CCC(=C(c1ccc(O)cc1)c1ccc(O)cc1)c1ccc(OCCO)c(OC)c1 |
| 220 to 222 °C | COc1cn(-c2ccc(-n3cc(F)c(F)c3)cc2OCC(F)(F)F)nc(-c2ccnn2-c2ccccc2)c1=O |
| 169 to 171 °C | CCOC(=O)C1=C(COCc2cccnc2)NC(COCc2cccnc2)=C(C(=O)OCC)C1c1cccc([N+](=O)[O-])c1 |
| 210 to 211 °C | Cc1c(Cc2cccnc2)ccc2ccc(C(=O)O)cc12 |
| 171 to 172 °C | COc1ccc2c(c1)CC(CNC(=O)Nc1c(C(C)C)cccc1C(C)C)CC2 (stereo not given) |
| 175 to 177 °C | Cc1c(C)c(N2CCN(c3ccc(F)cc3)CC2)c(C)c2c1OC(C)(C)C2 |
| 88 to 90 °C | COC(=O)C(C)c1nsc2ccc([N+](=O)[O-])cc12 (stereo not given) |
| 86 to 89 °C | CCCCOC(=O)[C@H]1CN(c2ccc3c(c2)oc(=O)n3C(C)C)C(=O)O1 |
| 183 to 184 °C | Cc1nn(Cc2cccc(Cl)c2)cc1C(=O)CC(=O)C(=O)O |
| 127 to 129 °C | CC1(C2CCCC2)Cc2cc(OCCCCCC(=O)O)c(Cl)c(Cl)c2C1=O (stereo not given) |
| 242 to 244 °C | CC1(C)Oc2cc3nonc3cc2C(N2CCCC2=O)C1O (stereo not given) |
| 152 to 154 °C | N#Cc1cc([N+](=O)[O-])ccc1Oc1c(F)c(F)cc(F)c1F |
| 89 °C | Cc1c(O)cccc1Br |
| 118 to 120 °C | C=C(C)C(=O)Nc1cccc(OC(=O)NC(C)(C)CC(C)(C)C)c1 |
| 123 to 126 °C | CC(C)OC(=O)N1CCC(c2nc3cc(-c4ccc(C(F)(F)F)cc4)ccc3o2)CC1 |
| 136 to 137 °C | COc1cc(COc2cc(N)c(Cl)cc2C(=O)CCCCN2CCC(C)CC2)cc(OC)c1 |
| 232 to 233 °C | N#Cc1n[nH]c2nc(N3CCN(CCO)CC3)ccc12 |
| 170 °C | Oc1ccc(Nc2nc(Cl)cc3ccccc23)cc1 |
| 277 to 280 °C | Cc1cc(C#N)cc(C)c1Nc1nc(Nc2ccc(C#N)cc2)ncc1Br |
| 188 to 190 °C | CNC(=O)n1c(NC(=O)c2ccc(NC(=N)N)cc2)nc2ccccc21 |
| 53 to 55 °C | Brc1ccc(OC2CCOCC2)cc1 |
| 145 to 152 °C | CC(COc1ccc(CC2SC(=O)NC2=O)cc1)NCC(O)Cc1ccccc1 (stereo not given) |

| melting point | SMILES |
| --- | --- |
| 179 to 180 °C | Cc1oc2ccccc2c(=O)c1O |
| 249 to 252 °C | CC1(n2cccc2)CN(c2c(F)cc3c(=O)c(C(=O)O)cn(C4CC4)c3c2F)C1 |
| 114 to 115 °C | CCOC(=O)CCc1ccc2c3ccccc3n(Cc3ccccc3)c2c1C |
| 58 to 59 °C | CCc1coc(Cc2ccc([N+](=O)[O-])cc2)n1 |
| 218 to 220 °C | COc1ccccc1N1CCN([C@@H]2Cc3c(O)cccc3C[C@H]2O)CC1 (relative stereo) |
| 115 to 116 °C | Cc1oc(-c2ccccc2)nc1CCOc1ccc(/C=C/CO)cn1 |
| 75.5 to 77 °C | CC(C)n1nc(C#Cc2ccccc2)ccc1=O |
| 61 to 62 °C | C[C@@H]([C@@H]1CCC(=O)O1)N(Cc1ccccc1)Cc1ccccc1 |
| 236 to 238 °C | O=C(O)c1nc2cc(N3CCN(c4ccc(F)cc4)CC3)c([N+](=O)[O-])cc2[nH]c1=O |
| 168 to 171 °C | CN(Cc1ccccc1)C(=O)c1cnc2c3c(c(F)cc2c1)C(=O)C(C(=O)O)C=N3 (stereo not given) |
| > 300 °C | O=C1CCc2cc(N/C(=C3\C(=O)Nc4ccc([N+](=O)[O-])cc43)c3ccccc3)ccc2N1 |
| 186 to 187 °C | FC(F)(F)CSc1nc(-c2ccccc2)c(-c2ccccc2)[nH]1 |
| 199 to 200 °C | Cc1nc(-c2ccccc2)nc(-c2cccc([N+](=O)[O-])c2)c1C(=O)NCCCl |
| 144 °C | CC(C)(C)OC(=O)NC[C@H](O)CC(=O)NN |
| 166 to 167 °C | Cc1nc(-c2ccc(C(F)(F)F)cc2)sc1CSc1ccc(OCC(=O)O)c2c1CCCC2 |
| 76 °C | CC(=O)OCCCCN(C)CCN(C)C(=O)[C@@H]1CCCN1S(=O)(=O)c1ccc(Cl)c(COc2cccc3c(-n4ccnc4)cc(C)nc23)c1Cl |
| 136 to 137 °C | CCCCc1ccc(C(=O)O)c2ccccc12 |
| 73 to 74 °C | CCCc1c(OCCOc2ccc(N)cc2)ccc(C(C)=O)c1O |
| 88 to 88.5 °C | CCCn1cnc(CO)c1C |
| 163 to 165 °C | CN1CNC(=S)N(c2ccc(C(F)(F)F)cc2)C1 |
| 49 to 50 °C | CCCCCc1c(/C=C/C(=O)OC)sc2cc(OC)ccc12 |
| 168 to 176 °C | COc1ccccc1Oc1c(Cl)nc(N2CCOCC2)nc1NS(=O)(=O)c1ccc(C(C)C)cn1 |
| 254 to 256 °C | Cc1ccn2c(C)c(-c3ccc4c(c3)NC(=O)C(C)O4)nc2c1 (stereo not given) |
